Structures can show the parent of a compound that is named as a salt.

The values that follow come from patent publication US7175872B2, “Pyridinium-Betain compounds for use as taste modulators” (Nestec S.A., priority 2002, dated 2007).

The assay has as its system sweet taste of L-alanine. Nature of the assay: Sweet taste detection threshold of L-alanine/Pyridinium-Betaine mixtures (triangle test, sensory panel). It counts as in vivo. Conditions: mixture with L-alanine; for Threshold decrease: vs L-alanine in water 12.5 mmol/L. How it is done: • Sensory panel training: […] Sensory analyses were performed in a sensory panel room at 22-25° C. on three different sessions. • Taste thresholds: The taste thresholds of the tastants or mixtures containing basic tastants plus Pyridinium-Betains were determined in a triangle test using Evian® mineral water as the solvent at a defined pH ([…] and H.-D. Belitz, Z. Lebensm. Unters. Forsch. 1975, 159, 65-72). The samples (3 mL) were presented in order of increasing concentrations (serial 1:1 dilutions). The threshold values evaluated in two different sessions were averaged. […] The taste intensities of aqueous (Evian®) solutions containing a basic tastant, such as glucose and MSG, for example, in constant concentrations and the compounds of the general formula (A), for example […], in various concentrations were compared with those of a solution containing the basic tastant only. To achieve this, triangle tests were performed with two glass vials containing the basic tastant in constant concentrations, and one glass vial containing a stepwise 1:1-diluted mixture of basic […]. […] The relative taste strength (taste enhancing factor) of a mixture containing the basic […] was related to the basic tastants glucose, MSG, or other tastants, respectively, as standard substances, and was determined as the ratio of the concentrations c of iso-intensely tasting solutions of the basic tastant, such as glucose (glc), and the mixture containing tastant plus Pyridinium-Betain, […])=[…] […] This taste enhancing effect is illustrated in examples. Besides the two carbohydrates, the sweet amino acid L-alanine was also tested with […]. Again, the best impact on sweet taste perception was found for the mixture at pH 9.0, resulting in an 8-fold lower threshold.

Take `CC(C(=O)[O-])[n+]1cc(O)ccc1CO` (stereo not shown) [Alapyridaine, N-(1-carboxyethyl)-3-hydroxy-6-hydroxymethyl-pyridinium inner salt]: the “reduction of the sweet threshold” value (pH 5.0) is reported as “only a slight reduction”. Under “pH 6.0”, the Sweet detection threshold amounted to 6.0 mmol/kg water, the Taste quality entry is given as “sweet” and the Threshold decrease amounted to 2.0. Further, where the note is “pH 7.0”, the Sweet detection threshold came out at 3.0 mmol/kg water, the Taste quality entry is “sweet” and the Threshold decrease is recorded as 4. For the same compound, for the setting “pH 9.0”, the Sweet detection threshold came out at 1.5 mmol/kg water, the Taste quality result is recorded as “sweet” and the Threshold decrease is 8.
